Key:
Type in all cases: cell-based
KOR [1] = molecular target: T1, KOR (Homo sapiens, UniProt P41145); test: DISCOVERX β-arrestin […] assay, agonist mode (KOR DRx); details: for EC50: agonist; for Emax (%): at highest concentration tested, compared to dynorphin A (Emax=100%)
Text: (§1) In this campaign, two assay platforms were employed to evaluate KOR activity and selectivity: the KOR1 DISCOVERX β-Arrestin […] assay and an imaging based β-arrestin translocation assay for confirmatory and selectivity assays. The KOR1 DISCOVERX β-Arrestin […] assay is a commercial platform for direct measurement of GPCR (G protein-coupled receptor) activation by detection of β-Arrestin binding to the KOR. […] In cells that stably express these fusion proteins, ligand stimulation results in the recruitment of β-Arrestin by the GPCR. This interaction encourages the complementation of the two β-galactosidase fragments resulting in the formation of a functional enzyme that converts substrate in the assay medium to a detectable signal.

KOR [2] = molecular target: T1, KOR; test: High content imaging based β-arrestin translocation assay, KOR agonist (KOR HCS); details: n = 2, read-out: Average Potency KOR HCS
Text: as §1, with “signal. The imaging based high-content β-arrestin translocation assay is based upon the redistribution of β-Arrestin linked to green fluorescent protein (GFP) to the cell surface and detection (Barak, et al. (1997) J. Biol. Chem. 272:27497-27500).” for “signal.”
(§2) Initially, a portion (approximately 290,000 compounds) of the MLSMR compound collection was tested in the KOR1 DISCOVERX β-arrestin primary kappa opioid (KOP) agonist and antagonist screens (PUBCHEM AID 1777 and 1778, respectively) at a single concentration point (10 μM). […] These compounds were concurrently tested in a β-galactosidase counterscreen assay (PUBCHEM AID 1966) to assess the possibility that these compounds might inhibit the reporting enzyme. […] The KOR:DOR:MOR selectivity of the compounds was determined using the analogous β-arrestin translocation assays for the DOR (PUBCHEM AID 2370 and 2357, for agonists and antagonist, respectively) and the MOR (PUBCHEM AID 2352 and 2420, for agonists and antagonists, respectively).

MOR = MOR (Homo sapiens, UniProt P35372); test: High content imaging based β-arrestin translocation assay, MOR agonist (MOR HCS); details: n = 2, read-out: Average Potency MOR HCS
Sequence of MOR (P35372 whole entry): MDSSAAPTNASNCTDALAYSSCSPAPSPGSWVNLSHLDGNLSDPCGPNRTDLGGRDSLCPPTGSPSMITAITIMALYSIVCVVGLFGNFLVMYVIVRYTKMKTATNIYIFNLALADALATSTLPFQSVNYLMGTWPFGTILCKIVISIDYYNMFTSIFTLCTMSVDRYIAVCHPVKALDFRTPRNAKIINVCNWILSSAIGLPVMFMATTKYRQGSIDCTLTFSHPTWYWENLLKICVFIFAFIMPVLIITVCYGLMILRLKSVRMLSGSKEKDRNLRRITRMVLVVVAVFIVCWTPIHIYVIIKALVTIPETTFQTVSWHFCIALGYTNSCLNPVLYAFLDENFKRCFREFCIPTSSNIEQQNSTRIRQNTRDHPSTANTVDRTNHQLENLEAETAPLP
Text: as §1, with “signal. The imaging based high-content β-arrestin translocation assay is based upon the redistribution of β-Arrestin linked to green fluorescent protein (GFP) to the cell surface and detection (Barak, et al. (1997) J. Biol. Chem. 272:27497-27500).” for “signal.”
as §2

[3] = n = 3, read-out: Average Potency KOR DRx
[4] = n = 4, Table 11, read-out: Potency, EC50 (DRx)

T1 sequence (P41145 whole entry, the tested form may be a part): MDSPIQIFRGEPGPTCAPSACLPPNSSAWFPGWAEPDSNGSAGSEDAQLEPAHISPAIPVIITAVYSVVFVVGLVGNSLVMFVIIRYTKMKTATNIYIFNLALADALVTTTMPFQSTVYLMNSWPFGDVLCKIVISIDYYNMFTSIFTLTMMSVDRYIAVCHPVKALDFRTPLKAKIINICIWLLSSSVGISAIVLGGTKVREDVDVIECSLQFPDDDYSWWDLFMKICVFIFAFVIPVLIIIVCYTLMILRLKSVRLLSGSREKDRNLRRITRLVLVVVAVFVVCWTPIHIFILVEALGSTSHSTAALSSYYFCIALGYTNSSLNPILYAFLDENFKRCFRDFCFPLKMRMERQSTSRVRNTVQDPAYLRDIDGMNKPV

Row | SMILES | Emax (KOR [1]) [%] | EC50 (KOR [1]; [3]) [µM] | EC50 (KOR [2]) [µM] | EC50 (MOR) [µM] | Emax (%) (KOR [1]) | EC50 (KOR [1]; [4]) [µM]
1 | CC(C)(C)c1ccc(CSc2nnc(-c3ccccn3)n2Cc2ccco2)cc1 [2{6}] | ~100 | 2.01 ± 0.07 | 0.6 | > 32 | – | –
2 | Clc1ccc(CSc2nnc(-c3ccccn3)n2Cc2cccs2)cc1Cl [2{9}, 2-(5-((3,4-Dichlorobenzyl)thio)-4-(thiophen-2-ylmethyl)-4H-1,2,4-triazol-3-yl)pyridine] | ~135 | 0.73 ± 0.11 | 0.43 | > 32 | – | –
3 | Clc1ccc(CSc2nnc(-c3ccccn3)n2Cc2ccco2)c(Cl)c1 [Compound 2{1}] | – | 1.86 ± 0.07 | 0.93 | > 32 | ~100 | –
4 | Clc1ccc(CSc2nnc(-c3ccccn3)n2Cc2cccs2)c(Cl)c1 [Compound 2{2}] | – | 2.27 ± 0.46 | 8.11 | > 32 | ~120 | –
5 | Brc1ccc(CSc2nnc(-c3ccccn3)n2Cc2ccco2)cc1 [Compound 2{3}] | – | 1.92 ± 0.05 | 1.36 | > 32 | ~100 | –
6 | Brc1ccc(CSc2nnc(-c3ccccn3)n2Cc2cccs2)cc1 [Compound 2{4}] | – | 1.85 ± 0.11 | 1.1 | > 32 | ~185 | –
7 | Clc1cccc(CSc2nnc(-c3ccccn3)n2Cc2ccco2)c1 [Compound 2{7}] | ~100 | 6.76 ± 0.01 | 3.63 | > 32 | – | –
8 | FC(F)(F)c1cc(CSc2nnc(-c3ccccn3)n2Cc2ccco2)ccc1Cl [Compound 2{10}] | – | 0.5 | 0.46 | > 32 | ~122 | –
9 | Cc1ccc(CSc2nnc(-c3ccccn3)n2Cc2cccs2)cc1 [Compound 2{13}] | – | 3.59 ± 0.3 | 2.38 | > 32 | ~170 | –
10 | FC(F)(F)c1ccc(CSc2nnc(-c3ccccn3)n2Cc2ccco2)cc1 [Compound 2{14}] | – | 2.77 | 1.25 | > 32 | ~166 | –
11 | FC(F)(F)c1ccc(CSc2nnc(-c3ccccn3)n2Cc2cccs2)cc1 [Compound 2{15}] | – | 1.23 | 0.6 | > 32 | ~149 | –
12 | Fc1cc(F)cc(CSc2nnc(-c3ccccn3)n2Cc2ccco2)c1 [Compound 2{16}] | – | 7.89 | 21 | > 32 | ~104 | –
13 | Cc1cc(C)c(CSc2nnc(-c3ccccn3)n2Cc2ccco2)c(C)c1 [Compound 2{18}] | – | – | – | > 32 | ~100 | –
14 | Cc1cc(C)c(CSc2nnc(-c3ccccn3)n2Cc2cccs2)c(C)c1 [Compound 2{19}] | – | > 20 | 9.5 | > 32 | – | –
15 | Fc1ccc(CSc2nnc(-c3ccccn3)n2Cc2cccs2)c(F)c1 [Compound 2{24}] | – | 6.74 ± 0.97 | 5.68 | > 32 | ~155 | –
16 | O=[N+]([O-])c1ccc(CSc2nnc(-c3ccccn3)n2Cc2ccco2)cc1 [Compound 2{25}] | – | 2.48 | 2.35 | > 32 | ~120 | –
17 | O=[N+]([O-])c1ccc(CSc2nnc(-c3ccccn3)n2Cc2cccs2)cc1 [Compound 2{26}] | – | 1.24 | 0.96 | > 32 | ~128 | –
18 | N#Cc1ccc(CSc2nnc(-c3ccccn3)n2Cc2ccco2)cc1 [Compound 2{27}] | – | 6.79 | 19 | > 32 | ~105 | –
19 | N#Cc1ccc(CSc2nnc(-c3ccccn3)n2Cc2cccs2)cc1 [Compound 2{28}] | – | 4.64 | 3.5 | > 32 | ~142 | –
20 | COC(=O)c1ccc(CSc2nnc(-c3ccccn3)n2Cc2ccco2)cc1 [Compound 2{29}] | – | 6.62 | 18.5 | > 32 | ~125 | –
21 | COC(=O)c1ccc(CSc2nnc(-c3ccccn3)n2Cc2cccs2)cc1 [Compound 2{30}] | – | 6.14 | 6 | > 32 | ~154 | –
22 | CC(=O)Oc1ccc(CSc2nnc(-c3ccccn3)n2Cc2ccco2)cc1 [Compound 2{31}] | – | > 20 | > 32 | > 32 | – | –
23 | CC(=O)Oc1ccc(CSc2nnc(-c3ccccn3)n2Cc2cccs2)cc1 [Compound 2{32}] | – | > 20 | > 32 | > 32 | – | –

Row | SMILES | Emax (KOR [1]) [%] | EC50 (KOR [1]; [3]) [µM] | EC50 (KOR [2]) [µM] | EC50 (MOR) [µM] | Emax (%) (KOR [1]) | EC50 (KOR [1]; [4]) [µM]
24 | CC(C)c1ccc(CSc2nnc(-c3ccccn3)n2Cc2ccco2)cc1 [Compound 2{33}] | – | 5.97 | 2.8 | > 32 | 165 | –
25 | COc1cccc(CSc2nnc(-c3ccccn3)n2Cc2cccs2)c1 [Compound 2{38}] | – | 8.72 | 12.2 | > 32 | ~100 | –
26 | Cc1c(CSc2nnc(-c3ccccn3)n2Cc2ccco2)cccc1[N+](=O)[O-] [Compound 2{39}] | – | 8.21 | 12 | > 32 | ~128 | –
27 | Cc1c(CSc2nnc(-c3ccccn3)n2Cc2cccs2)cccc1[N+](=O)[O-] [Compound 2{40}] | – | 5.81 | 4.2 | > 32 | ~105 | –
28 | COc1ccc(Cn2c(SCc3ccccc3)nnc2-c2ccccn2)cc1 [Entry 1] | – | – | – | – | – | > 20
29 | COc1ccc(Cn2c(SCc3ccc(Br)cc3)nnc2-c2ccccn2)cc1 [Entry 2] | – | – | – | – | – | > 20
30 | COc1ccc(Cn2c(SCc3ccc(Cl)c(Cl)c3)nnc2-c2ccccn2)cc1 [Entry 3] | – | – | – | – | – | 11.8
31 | COc1ccc(Cn2c(SCc3ccc(Cl)c(C(F)(F)F)c3)nnc2-c2ccccn2)cc1 [Entry 4] | – | – | – | – | – | > 19.7
32 | c1ccc(CSc2nnc(-c3ccccn3)n2Cc2ccccc2)cc1 [Entry 5] | – | – | – | – | – | > 20
33 | Brc1ccc(CSc2nnc(-c3ccccn3)n2Cc2ccccc2)cc1 [Entry 6] | – | – | – | – | – | 4.06
34 | Clc1ccc(CSc2nnc(-c3ccccn3)n2Cc2ccccc2)cc1Cl [Entry 7] | – | – | – | – | – | 1.24
35 | FC(F)(F)c1cc(CSc2nnc(-c3ccccn3)n2Cc2ccccc2)ccc1Cl [Entry 8] | – | – | – | – | – | 2.22
36 | c1ccc(CSc2nnc(-c3ccccn3)n2Cc2cccnc2)cc1 [Entry 9] | – | – | – | – | – | > 20
37 | Brc1ccc(CSc2nnc(-c3ccccn3)n2Cc2cccnc2)cc1 [Entry 10] | – | – | – | – | – | 8.51
38 | Clc1ccc(CSc2nnc(-c3ccccn3)n2Cc2cccnc2)cc1Cl [Entry 11] | – | – | – | – | – | 0.76
39 | Clc1ccccc1Cn1c(SCc2ccccc2)nnc1-c1ccccn1 [Entry 13] | – | – | – | – | – | > 20
40 | FC(F)(F)c1cc(CSc2nnc(-c3ccccn3)n2Cc2ccccc2Cl)ccc1Cl [Entry 16] | – | – | – | – | – | 4.3
41 | c1ccc(CSc2nnc(-c3ccncc3)n2Cc2ccco2)cc1 [Entry 17] | – | – | – | – | – | > 20
42 | FC(F)(F)c1cc(CSc2nnc(-c3ccncc3)n2Cc2ccco2)ccc1Cl [Entry 20] | – | – | – | – | – | > 20
43 | Brc1ccc(-c2nnc(SCc3ccccc3)n2Cc2ccco2)cc1 [Entry 21] | – | – | – | – | – | > 20
44 | Brc1ccc(CSc2nnc(-c3ccc(Br)cc3)n2Cc2ccco2)cc1 [Entry 22] | – | – | – | – | – | 13.5
45 | Clc1ccc(CSc2nnc(-c3ccc(Br)cc3)n2Cc2ccco2)cc1Cl [Entry 23] | – | – | – | – | – | 11
46 | FC(F)(F)c1cc(CSc2nnc(-c3ccc(Br)cc3)n2Cc2ccco2)ccc1Cl [Entry 24] | – | – | – | – | – | 13.3
